From patent US20180221329A1, “CIS- AND TRANS-SUFFRUTICOSOL D AS THERAPEUTIC AGENTS” (MIDDLE TENNESSEE STATE UNIVERSITY, priority 2015, published 2018)
Where two headings read alike, the source gives them in different places.

Columns and labels:
Type in all cases: cell-based, human
[1] = test system: A549 (lung), BT20 (breast), MCF7 (breast) and U2OS (osteosarcoma) cancer cell lines; assay: Cell proliferation assay, range over the four cancer cell lines; settings: for IC50: A549, BT20, MCF7, U2OS, 48 h, read-out: IC50 values in all four cancer cell lines (range); for selectivity (range over cancer cell lines): cancer cell lines versus normal HMEC
Description: Cell culture. Four human cancer cell lines including A549 (lung carcinoma), BT20 (estrogen receptor-negative human breast adenocarcinoma), MCF-7 (estrogen receptor-positive human breast adenocarcinoma) and U2OS (human osteosarcoma) were purchased from American Type Culture Collection (ATCC). An A549 cell line that stably expresses Green Fluorescent Protein (GFP) was purchased from Cell BioLabs Inc. (San Diego, Calif., USA). A549, A549-GFP and BT20 cells were cultured in RPMI 1640 media (Sigma-Aldrich, St. Louis, Mo., USA), MCF7 cells were cultured in DMEM medium (ATCC, Manassas, Va., USA), and U20S cells were cultured in McCoy's 5A medium (ATCC, Manassas, Va., USA). As a control, HMEC cells (primary human mammary breast epithelial cells) were purchased from ATCC and cultured in McCoy's 5A medium. All medium contained 10% FBS (Sigma-Aldrich, St. Louis, Mo., USA) and 1% streptomycin and penicillin (Sigma-Aldrich, St. Louis, Mo., USA). These cells were incubated in a humid environment with 5% CO2 at 37° C.
Cell proliferation assay. The resazurin reduction reagent AlamarBlue (Invitrogen, Frederick, Md., USA) was used to evaluate the cytotoxicity of the compounds. Cells were plated at a density of 5×10^3 cells per well in 96-well microplates with 100 μl culture medium, and were allowed to attach for 16 h prior to treatment. Next, all the medium was replaced with medium containing the cis- or trans-suffruticosol D compounds at seven different concentrations: 320, 100, 32, 10, 3.2, 1.0, and 0.32 μM. The cells were placed in an incubator for 48 h at 37° C. Cells that were treated with medium-containing vehicle (1% DMSO) only serve as negative control. Subsequently, AlamarBlue solution was added to the medium and the cells were incubated in the CO2 incubator for 1 h. The fluorescent intensity change of the dye was measured at Ex 555 nm and Em 590 nm using a plate reader (Molecular Devices, Sunnyvale, Calif., USA). The cytotoxicity was examined by determining by IC50, the dose that inhibited 50% of cell growth, using GraphPad Prism software (GraphPad Software, La Jolla, Calif., USA).

A549-GFP cells = assay: Cell motility assay (fluorescent bead track area); settings: 18 h, medium with 10% FBS
Description: FIGS. 4A and 4B depict cell motility changes induced by cis- and trans-suffruticosol D in A549 cells. A549-GFP cells were seeded in 96-well plate with a monolayer of fluorescent beads. After treatment with cis- or trans-suffruticosol D for 18 h, individual cell movement was evaluated by measuring the fluorescent track area. Cells treated with serum free medium served as a negative control and cells treated with medium containing 10% serum served as a positive control.
Cell motility assay. A 96-well collagen plate (Corning, N.Y., USA) was coated with blue fluorescent beads (Life Technologies, Eugene, Oreg., USA) as follows. The beads were centrifuged for 1 min at 14,000 g and washed twice with PBS, then 75 μl beads were added to each well of the 96-well collagen plate and incubated for 1 h at 37° C. The cells were seeded on the lawn of fluorescent beads and the sizes of the tracks generated by migrating cells were measured. After the plate was washed 5 times with PBS, A549-GFP cells were seeded at 500 cells/well in the coated plate and incubated for 1 h at 37° C. Subsequently the cells were treated with different concentrations of cis- or trans-suffruticosol D in medium containing 10% FBS for 18 h. Cells treated with serum-free medium serve as the negative control and cells treated with medium containing 10% FBS serve as the positive control. Cell tracks were imaged using an Arrayscan VTI HCS reader (Thermo Scientific, Waltham, Mass., USA) and the data was analyzed by vHCS Scan software. The mean of the full track area per cell for the test compound and the controls was calculated.

phosphorylated NF-κB p65 = assay: Western blotting analysis of TNF-α-induced NF-κB p65 phosphorylation; settings: 50 μM, 3 h, then 10 ng/mL TNF-α 30 min, A549
Description: Western blotting analysis. A549 cells were treated with 50 μM of cis- or trans-suffruticosol D for 3 h then incubated with 10 ng/mL of TNF-α for 30 min. Cells treated with the NF-κB inhibitor Bay11-7082 (10 μM) (Sigma-Aldrich) were used as a positive control, and cells treated with vehicle only were used as a negative control. After treatment, the cells were lysed using M-PER mammalian protein extraction reagent (Pierce PERBIO, Rockford, Ill.) containing proteinase and phosphatase inhibitors (Sigma-Aldrich, USA) and centrifuged at 13,000 rpm for 5 min at 4° C. A Pierce BCA protein assay kit (Thermo Fisher Scientific, Waltham, Mass., USA) was used to determined protein concentrations. Proteins were separated on a 4-20% Tris Glycine gel (Thermo Fisher Scientific, Waltham, Mass., USA), and electrophoretically transferred to a PVDF membrane. The following primary antibodies were used: phosphorylated-NF-κB p65, NF-κB p65 (Cell Signaling Technology, Danver, Mass.) and actin (Santa Cruz Biotechnology, Dallas, Tex.). The membrane was incubated with the primary antibodies at a 1:1000 concentration at 4° C. overnight. After washing with 1×PBS 5 times, the membrane was incubated for 2 h at room temperature with HRP linked anti-rabbit IgG secondary antibodies. […]

SMILES | IC50 [1] | selectivity (range over cancer cell lines) [1] | decrease of A549 cell motility (A549-GFP cells; 10 μM) | decrease of A549 cell motility (A549-GFP cells; 32 μM) | decrease of A549 cell motility (A549-GFP cells; 100 μM) | expression of phosphorylated NF-κB p65 upon TNF-α stimulation (phosphorylated NF-κB p65) | IC50 ([1]; Homo sapiens)
Oc1ccc(C=Cc2c3c(cc4c2[C@@H](c2cc(O)cc(O)c2)[C@H](c2ccc(O)cc2)O4)O[C@H](c2ccc(O)cc2)[C@@H]3c2cc(O)cc(O)c2)cc1 [cis-suffruticosol D] | 13.4 to 46.8 µM | 9.2-14.7 fold | 42.3% | 42.0% | 50.4% | blocked as effectively as the blockage caused by the Bay11-7082 inhibitor control | 
Oc1ccc(/C=C/c2c3c(cc4c2[C@@H](c2cc(O)cc(O)c2)[C@H](c2ccc(O)cc2)O4)O[C@H](c2ccc(O)cc2)[C@@H]3c2cc(O)cc(O)c2)cc1 [trans-suffruticosol D] | 9.93 to 20.8 µM | 5.8-20 fold | 40.7% | 40.7% | 54.9% | almost completely blocked | 9.93 to 15.8 µM
